# Reference: US12194013B2 (SICHUAN JIUZHANG BIOLOGICAL SCIENCE AND TECHNOLOGY CO., LTD., priority 2018, dated 2025)
# Marks after values point to notes of the source that are not given here.
# Experiments:
# [1] = system: head and neck squamous cell carcinoma SCCVII cell lines; test: Transplanted tumor of head and neck squamous cell carcinoma SCCVII cell lines in mice; assay type: in vivo, mouse; details: 30 mg·kg^−1 intraperitoneally once a day; for Tumor volume / Tumor weight / Tumor inhibition rate: C3H/HeJ mice, SCCVII; for Tumor weight: at end of experiment; for Tumor inhibition rate: from average tumor weight vs negative group
# Experimental: When the cells grew vigorously, they were digested with 0.25% trypsin, washed with phosphate buffer, and prepared as cell suspension at 3×10^6 cells/ml for use.
# 0.1 ml cell suspension was subcutaneously injected into the armpit of the left forelimb of mice. They were randomly divided into groups, 10 mice for one group, including test drug group 1, test drug group 2, test drug group 3, test drug group 4, test drug group 5, test drug group 6, test drug group 7, and negative group (N.S.), respectively. The drug was given on the second day after inoculation. The test drug group was intraperitoneally injected at a dose of 30 mg·kg^−1, once a day, and the administration volume was 1.0 ml; in the negative group, the same volume of normal saline was intraperitoneally injected, once a day.
# The tumor volume (v=0.52×the long diameter of transplanted tumor L×the shortest diameter of transplanted tumor W^2) was measured on the 5th day after inoculation, and the mice were weighed every three days. When the tumor volume of the negative group was about 1.0 cm^3, the experiment was stopped, and the mice were killed by cervical dislocation and weighed.
# [2] = system: human skin squamous cell carcinoma A431 cells; test: Inhibition of cell proliferation (MTT method); assay type: cell-based; details: 72 h
# Experimental: (§1) A431 cell lines were seeded in IMDM medium, containing 10% fetal bovine serum, 100 U·ml^−1 penicillin, and 100 μg·ml^−1 streptomycin, and then cultured in 37° C., 5% CO2 incubator. Cells were passaged one generation at 48-72 h, and the cells in the logarithmic growth phase were collected for the experiment.
# The cells in logarithmic growth phase were inoculated on 96 well plate and further cultured for 24 hours, then divided into experimental groups and blank control group. […] The blank control group was added with the same volume of IMDM culture medium without test substance. Six multiple wells were set for each concentration. After 72 hours, the newly prepared MTT solution was added. After further culturing for 4 h, DMSO solution was added and shook, so that the crystals were fully dissolved. The absorbance value (A570 nm) of each well was measured on the microplate reader.
# [3] = system: human skin squamous cell carcinoma A431 cells; test: Detecting apoptosis by flow cytometry (Annexin V-FITC/PI); assay type: cell-based; details: 72 h
# Experimental: as §1
# The cells of each group treated with different concentrations of test substance for 72 h were collected and made into single cell suspension. The living cells were labeled with Annexin V-FITC and PI. After mixing, the cells were incubated in dark for 15 min at room temperature, and then 1× binding buffer was added and mixed, before the apoptotic cells were detected by flow cytometry and analyzed by Multicyc AV software.
SMILES,"inhibitory effect on the tumors in mice transplanted with SCCVII cell lines, compared with the negative group (in words) [1]",Tumor volume ([1]; 5 d after inoculation) [cm^3],Tumor volume ([1]; 8 d after inoculation) [cm^3],Tumor volume ([1]; 10 d after inoculation) [cm^3],Tumor volume ([1]; 13 d after inoculation),Tumor volume ([1]; 15 d after inoculation),Tumor volume ([1]; 18 d after inoculation),Tumor weight [1],Tumor inhibition rate [1] [%],Apoptosis rate of each experimental group ([3]; 1 μg/ml) [%],Apoptosis rate of each experimental group ([3]; 2 μg/ml) [%],Apoptosis rate of each experimental group ([3]; 4 μg/ml) [%],Apoptosis rate of each experimental group ([3]; 8 μg/ml) [%],Apoptosis rate of each experimental group ([3]; 16 μg/ml) [%],Apoptosis rate of each experimental group ([3]; 32 μg/ml) [%],Apoptosis rate of each experimental group ([3]; 64 μg/ml) [%],Apoptosis rate of each experimental group ([3]; 128 μg/ml) [%],also measured
O=C(/C=C/c1ccc(O)c(O)c1)O[C@@H]1C[C@](O)(C(=O)O)C[C@@H](O)[C@H]1O [Chlorogenic acid],significant differences,0.124 ± 0.083,0.222 ± 0.079,0.347 ± 0.102,0.436 ± 0.172* cm^3,0.483 ± 0.136* cm^3,0.545 ± 0.224* cm^3,1.43 ± 0.074 g,41.15,0.57 ± 0.04,0.57 ± 0.05,0.61 ± 0.06,0.71 ± 0.11,1.99 ± 0.57,4.56 ± 1.08,4.73 ± 1.22,4.87 ± 0.74,"inhibition at 1 µg/mL ([2]; Homo sapiens, A-431, A431 cells, 1 μg/ml, read-out: The inhibition rate of each experimental group): 1.12 ± 0.47%; inhibition at 2 µg/mL ([2]; Homo sapiens, A-431, A431 cells, 2 μg/ml, read-out: The inhibition rate of each experimental group): 1.38 ± 0.53%; inhibition at 4 µg/mL ([2]; Homo sapiens, A-431, A431 cells, 4 μg/ml, read-out: The inhibition rate of each experimental group): 5.63 ± 2.29%; inhibition at 8 µg/mL ([2]; Homo sapiens, A-431, A431 cells, 8 μg/ml, read-out: The inhibition rate of each experimental group): 11 ± 4.71%; inhibition at 16 µg/mL ([2]; Homo sapiens, A-431, A431 cells, 16 μg/ml, read-out: The inhibition rate of each experimental group): 18.6 ± 4.82%; inhibition at 32 µg/mL ([2]; Homo sapiens, A-431, A431 cells, 32 μg/ml, read-out: The inhibition rate of each experimental group): 24.5 ± 9.69%; inhibition at 64 µg/mL ([2]; Homo sapiens, A-431, A431 cells, 64 μg/ml, read-out: The inhibition rate of each experimental group): 31.4 ± 7.35%; inhibition at 128 µg/mL ([2]; Homo sapiens, A-431, A431 cells, 128 μg/ml, read-out: The inhibition rate of each experimental group): 36.3 ± 10.8%"
O=C(/C=C/c1ccc(O)cc1)O[C@@H]1C[C@](O)(C(=O)O)C[C@@H](O)[C@H]1O [Coumaroylquinic acid],not obvious,0.124 ± 0.047,0.258 ± 0.121,0.369 ± 0.114,0.604 ± 0.225* cm^3,0.653 ± 0.111* cm^3,0.811 ± 0.108* cm^3,2.11 ± 0.129^ g,13.17,0.53 ± 0.03,0.55 ± 0.05,0.56 ± 0.04,0.64 ± 0.13,0.69 ± 0.41,1.37 ± 0.36,2.26 ± 0.69,3.07 ± 1.23,"Tumor volume ([1]; 22 d after inoculation): 0.954 ± 0.203* cm^3; inhibitory effect on human skin squamous cell carcinoma A431 (in words) ([2]; 1-128 μg/ml): not obvious; The inhibition rate of each experimental group ([2]; A431 cells, 1 μg/ml): 1.24 ± 0.81%; The inhibition rate of each experimental group ([2]; A431 cells, 2 μg/ml): 1.28 ± 0.69%; The inhibition rate of each experimental group ([2]; A431 cells, 4 μg/ml): 1.33 ± 0.42%; The inhibition rate of each experimental group ([2]; A431 cells, 8 μg/ml): 2.41 ± 0.58%; The inhibition rate of each experimental group ([2]; A431 cells, 16 μg/ml): 2.62 ± 0.86%; The inhibition rate of each experimental group ([2]; A431 cells, 32 μg/ml): 5.77 ± 0.92%; The inhibition rate of each experimental group ([2]; A431 cells, 64 μg/ml): 6.83 ± 1.02%; The inhibition rate of each experimental group ([2]; A431 cells, 128 μg/ml): 8.11 ± 0.63%"
